Measured values: US20250340565A1, “CD73 INHIBITOR COMPOUNDS” (AdoRx Therapeutics Limited, priority 2022, published 2025)
pIC50: −log10 of the molar value. Counter-ions that a name gives are not always drawn.

How the values were obtained:
[1] = target: CD73 activity in U138-MG cells (Homo sapiens (Human), UniProt P21589); test: U138-MG inhibition assay (inorganic phosphate from AMP, PiColorLock Gold); format: cell-based; details: 100 μM AMP, 30 min pre-incubation, 1 hour at 37° C.
Description: U138-MG cells from ATCC are cultured in DMEM (Gibco 31966) with 10% FBS. Cells are seeded into 96-well culture plates (5,000 cell/well) in 100 μL of media for 24 hr. Cells are washed twice with 200 μL of assay buffer (20 mM HEPES, pH 7.4; 137 mM NaCl; 5.4 mM KCl; 1.3 mM CaCl2; 4.2 mM NaHCO3; 1 mg/mL glucose) to remove residual inorganic phosphate. CD73 inhibitor is added to each well in 100 μl volume and preincubated for 30 mins at 37° C. An equal volume of AMP substrate (Sigma A1572) is added to each well at a final concentration of 100 μM and incubated at 37° C. for 1 hour. Control wells containing cells but lacking added AMP, define the assay signal equivalent to 100% inhibition of CD73 activity. Supernatant is removed for measurement of inorganic phosphate using the PiColorLock Gold kit (Abcam, ab 270004).
The IC50 values of test compounds are determined as the inflection point of the sigmoidal concentration response curve.

[2] = target: human (h)CD73 (amino acids Trp27-Lys547) (Homo sapiens, UniProt P21589); test: CD73 inhibition assay (Malachite Green phosphate detection); format: biochemical; details: 250 pM hCD73, 12.5 μM AMP, 20 min pre-incubation, absorbance 620 nm
Description: Compound inhibition of human (h)CD73 (amino acids Trp27-Lys547, R&D Systems 5795-EN-500) enzymatic activity was tested via the Malachite Green Phosphate Detection Kit (R&D DY996). Experiments were performed in 20 μL Tris buffer (25 mM Tris pH 7.5, 5 mM MgCl2, 0.002% Tween20), with 250 pM of hCD73. Test compounds of interest were prepared in a threefold serial dilution in DMSO and added to the assay to give the appropriate final concentration, with the assay DMSO concentration being 1%. Compounds were pre-incubated for 20 minutes with hCD73 in a 384 well clear plate (Greiner 781101), followed by the addition of adenosine monophosphate (AMP) to 12.5 μM. The enzymatic reaction was carried out for 20 min at room temperature. 5 μL of Malachite kit reagent A was added to stop the reaction (contains 3M H2SO4) and after 10 min, 5 μL of Malachite kit reagent B was added (Malachite Green). After 30 min, absorbance at 620 nm was read on a BMG Pherastar FSX.
Data were normalised to measurements in the absence of competing compound (0% inhibition) and in the presence of 10 μM control compound (100% inhibition).

CD73 in whole blood = CD73 in whole blood (Homo sapiens (Human), UniProt P21589); test: Whole blood AMP Glo assay; format: cell-based; details: whole blood of healthy volunteers, 10 μM AMP, 30 min pre-incubation, 15 min at 37° C., levamisole 1.5 mM
Description: Blood is drawn from healthy volunteers by venepuncture and anti-coagulated with Lithium Heparin (10 IU/mi). 150 μl of blood is added to U-bottom polypropylene 96-well assay plates pre-filled with 20 μl of compound dilutions prepared in RPMI also containing the Tissue Non-specific Alkaline Phosphatase inhibitor Levamisole (final assay concentration 1.5 mM). Control wells to define uninhibited CD73 contain DMSO in place of compound. Control wells to define complete stabilization of AMP attributable to CD73 contain LY3475070 (CAS: 2375815-63-5) at 30 μM final assay concentration.
Compounds are pre-incubated with whole blood at 37° C. for 30 minutes. Following this, AMP is added in a 30 μl volume for a final assay concentration of 10 μM, mixed, and the plates are incubated for 15 minutes at 37° C. Final DMSO concentration/well is 0.6% and final volume/well is 200 μL. After incubating with AMP, the plates are placed on ice and then centrifuged at 2000 g for 10 minutes at 4° C. Plasma is removed and then diluted 1:10 with pre-chilled HBSS (Ca2+& Mg2+free) and kept on ice.
The stabilized AMP concentration in diluted plasma is measured using AMP-Glo kit (Promega), in parallel with a standard curve of known AMP concentrations, with a final volume of 40 μl in white flat bottom half-well 96-well plates (Corning). Signal is measured by Luminescence. The IC50 values of test compounds are determined as the inflection point of the sigmoidal concentration response curve.

Sequence of CD73 activity in U138-MG cells (P21589 27-574): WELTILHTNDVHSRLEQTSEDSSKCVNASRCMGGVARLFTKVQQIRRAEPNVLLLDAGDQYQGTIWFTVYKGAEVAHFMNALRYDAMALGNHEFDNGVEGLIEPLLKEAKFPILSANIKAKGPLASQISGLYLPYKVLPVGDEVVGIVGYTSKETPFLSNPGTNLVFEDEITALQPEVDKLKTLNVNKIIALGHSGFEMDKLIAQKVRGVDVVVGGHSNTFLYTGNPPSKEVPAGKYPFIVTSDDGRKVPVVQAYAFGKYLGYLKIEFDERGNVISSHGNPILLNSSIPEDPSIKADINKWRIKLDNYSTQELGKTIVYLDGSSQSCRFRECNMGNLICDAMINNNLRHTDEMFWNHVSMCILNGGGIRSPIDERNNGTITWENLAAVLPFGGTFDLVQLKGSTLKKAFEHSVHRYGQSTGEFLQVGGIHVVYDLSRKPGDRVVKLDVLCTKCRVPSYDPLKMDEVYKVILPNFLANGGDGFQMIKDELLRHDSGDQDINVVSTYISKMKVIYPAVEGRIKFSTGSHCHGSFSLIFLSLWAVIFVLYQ
Sequence of CD73 in whole blood (P21589 27-574): as above

N#Cc1cnc2sc(-c3c[nH]c(=O)[nH]c3=O)cc2c1N1CCC(OCCN2CCCCC2)C1 (stereo not drawn) [Example 11, 2-(2,4-Dioxo-1H-pyrimidin-5-yl)-4-[3-[2-(1-piperidyl)ethoxy]pyrrolidin-1-yl]thieno[2,3-b]pyridine-5-carbonitrile]
pIC50 [1]: 6.61
pIC50 [2]: 6.99
pIC50 (CD73 in whole blood): 6.16

O=c1[nH]cc(-n2cc3c(N4CCC(OCCN5CCCCC5)C4)ncnc3n2)c(=O)[nH]1 (stereo not drawn) [Example 12, 5-[4-[3-[2-(1-Piperidyl)ethoxy]pyrrolidin-1-yl]pyrazolo[3,4-d]pyrimidin-2-yl]-1H-pyrimidine-2,4-dione hydrochloride]
pIC50 [1]: 8.57
pIC50 [2]: 7.47
pIC50 (CD73 in whole blood): 9.22

CC1(C)CN(c2ncnc3nn(-c4c[nH]c(=O)[nH]c4=O)cc23)CC1(F)F [Example 13, 5-[4-(3,3-Difluoro-4,4-dimethyl-pyrrolidin-1-yl)pyrazolo[3,4-d]pyrimidin-2-yl]-1H-pyrimidine-2,4-dione]
pIC50 [1]: 8.74
pIC50 [2]: 7.35
pIC50 (CD73 in whole blood): 9.33

O=c1[nH]cc(-n2cc3c(N4CC(F)(F)C5(CC5)C4)ncnc3n2)c(=O)[nH]1 [Example 13.1, 5-[4-(7,7-Difluoro-5-azaspiro[2.4]heptan-5-yl)pyrazolo[3,4-d]pyrimidin-2-yl]-1H-pyrimidine-2,4-dione]
pIC50 [1]: 8.62
pIC50 [2]: 7.43
pIC50 (CD73 in whole blood): 8.94

O=c1[nH]cc(-n2cc3c(N4CC(F)(F)C5(CCC5)C4)ncnc3n2)c(=O)[nH]1 [Example 13.2, 5-[4-(8,8-Difluoro-6-azaspiro[3.4]octan-6-yl)pyrazolo[3,4-d]pyrimidin-2-yl]-1H-pyrimidine-2,4-dione]
pIC50 [1]: 8.68
pIC50 [2]: 7.22
pIC50 (CD73 in whole blood): 8.95

O=c1[nH]cc(-n2cc3c(N4CC(F)(F)C5(CCCC5)C4)ncnc3n2)c(=O)[nH]1 [Example 13.3, 5-[4-(4,4-Difluoro-2-azaspiro[4.4]nonan-2-yl)pyrazolo[3,4-d]pyrimidin-2-yl]-1H-pyrimidine-2,4-dione]
pIC50 [1]: 8.35
pIC50 [2]: 6.91
pIC50 (CD73 in whole blood): 8.45

O=c1[nH]cc(-n2cc3c(N4C[C@H]5CCC[C@H]5C4)ncnc3n2)c(=O)[nH]1 [Example 13.4, 5-[4-[(3aR,6aS)-3,3a,4,5,6,6a-Hexahydro-1H-cyclopenta[c]pyrrol-2-yl]pyrazolo[3,4-d]pyrimidin-2-yl]-1H-pyrimidine-2,4-dione]
pIC50 [1]: 7.45
pIC50 [2]: 7.02
pIC50 (CD73 in whole blood): 7.85

CCC1(C)CCN(c2ncnc3nn(-c4c[nH]c(=O)[nH]c4=O)cc23)C1 (stereo not drawn) [Example 13.5, 5-[4-(3-Ethyl-3-methyl-pyrrolidin-1-yl)pyrazolo[3,4-d]pyrimidin-2-yl]-1H-pyrimidine-2,4-dione]
pIC50 [1]: 7.98
pIC50 [2]: 7.07
pIC50 (CD73 in whole blood): 8.67

CC1(C)CCN(c2ncnc3nn(-c4c[nH]c(=O)[nH]c4=O)cc23)C1 [Example 13.6, 5-[4-(3,3-Dimethylpyrrolidin-1-yl)pyrazolo[3,4-d]pyrimidin-2-yl]-1H-pyrimidine-2,4-dione]
pIC50 [1]: 8.07
pIC50 [2]: 7.51
pIC50 (CD73 in whole blood): 8.92

CCC1(CC)CCN(c2ncnc3nn(-c4c[nH]c(=O)[nH]c4=O)cc23)C1 [Example 13.7, 5-[4-(3,3-Diethylpyrrolidin-1-yl)pyrazolo[3,4-d]pyrimidin-2-yl]-1H-pyrimidine-2,4-dione]
pIC50 [1]: 7.68
pIC50 [2]: 7.13
pIC50 (CD73 in whole blood): 8.12

O=c1[nH]cc(-n2cc3c(N4CC(F)(F)C(F)(F)C4)ncnc3n2)c(=O)[nH]1 [Example 13.8, 5-[4-(3,3,4,4-Tetrafluoropyrrolidin-1-yl)pyrazolo[3,4-d]pyrimidin-2-yl]-1H-pyrimidine-2,4-dione]
pIC50 [1]: 7.92
pIC50 [2]: 7.32
pIC50 (CD73 in whole blood): 8.82

O=c1[nH]cc(-n2cc3c(N4C[C@H]5COC[C@H]5C4)ncnc3n2)c(=O)[nH]1 [Example 13.9, 5-[4-[(3aR,6aS)-1,3,3a,4,6,6a-Hexahydrofuro[3,4-c]pyrrol-5-yl]pyrazolo[3,4-d]pyrimidin-2-yl]-1H-pyrimidine-2,4-dione]
pIC50 [1]: 7.31
pIC50 [2]: 6.52
pIC50 (CD73 in whole blood): 8.26

COC1CN(c2ncnc3nn(-c4c[nH]c(=O)[nH]c4=O)cc23)CC1(F)F (stereo not drawn) [Example 13.11, 5-[4-(3,3-Difluoro-4-methoxy-pyrrolidin-1-yl)pyrazolo[3,4-d]pyrimidin-2-yl]-1H-pyrimidine-2,4-dione]
pIC50 [1]: 8.49
pIC50 [2]: 7.31
pIC50 (CD73 in whole blood): 8.82

O=c1[nH]cc(-c2cc3c(N4CCC(OCCN5CCCCC5)C4)ccnc3s2)c(=O)[nH]1 (stereo not drawn) [Example 14, 5-[4-[3-[2-(1-Piperidyl)ethoxy]pyrrolidin-1-yl]thieno[2,3-b]pyridin-2-yl]-1H-pyrimidine-2,4-dione]
pIC50 [1]: 6.75
pIC50 [2]: 7.20
pIC50 (CD73 in whole blood): 6.26

O=c1[nH]cc(-c2nc3c(N4CCC(OCCN5CCCCC5)C4)ncnc3[nH]2)c(=O)[nH]1 (stereo not drawn) [Example 15, 5-[6-[3-[2-(1-Piperidyl)ethoxy]pyrrolidin-1-yl]-9H-purin-8-yl]-1H-pyrimidine-2,4-dione]
pIC50 [1]: 7.18
pIC50 [2]: 6.86
pIC50 (CD73 in whole blood): 7.25

O=c1[nH]cc(-c2cc3nccc(N4CCC(OCCN5CCCCC5)C4)c3s2)c(=O)[nH]1 (stereo not drawn) [Example 16, 5-[7-[3-[2-(1-Piperidyl)ethoxy]pyrrolidin-1-yl]thieno[3,2-b]pyridin-2-yl]-1H-pyrimidine-2,4-dione]
pIC50 [1]: 5.87
pIC50 [2]: 6.53
pIC50 (CD73 in whole blood): 5.81

O=c1[nH]cc(-c2cc3c(N4CC(OCCN5CCCCC5)C(F)(F)C4)ncnn3c2)c(=O)[nH]1 (stereo not drawn) [Example 17, 5-[4-[3,3-Difluoro-4-[2-(1-piperidyl)ethoxy]pyrrolidin-1-yl]pyrrolo[2,1-f][1,2,4]triazin-6-yl]-1H-pyrimidine-2,4-dione formate salt]
pIC50 [1]: 6.97
pIC50 [2]: 7.23
pIC50 (CD73 in whole blood): 6.92

O=C1N=CC(c2cc3c(N4CCC(OCCN5CCCCC5)C4)nc(Cl)nn3c2)C(=O)N1 (stereo not drawn) [Example 18, 5-[2-Chloro-4-[3-[2-(1-piperidyl)ethoxy]pyrrolidin-1-yl]pyrrolo[2,1-f][1,2,4]triazin-6-yl]-5H-pyrimidine-2,4-dione]
pIC50 [1]: 7.04
pIC50 [2]: 7.20
pIC50 (CD73 in whole blood): 6.93

O=c1[nH]cc(-c2cc3c(N4CC(F)(F)C5(CCC5)C4)ncnc3o2)c(=O)[nH]1 [Example 19, 5-[4-(8,8-Difluoro-6-azaspiro[3.4]octan-6-yl)furo[2,3-d]pyrimidin-6-yl]-1H-pyrimidine-2,4-dione]
pIC50 [1]: 7.16
pIC50 [2]: 7.24
pIC50 (CD73 in whole blood): 5.91

O=c1[nH]cc(-c2cc3c(N4CC(F)(F)C5(CCCC5)C4)ncnc3o2)c(=O)[nH]1 [Example 19.1, 5-[4-(4,4-Difluoro-2-azaspiro[4.4]nonan-2-yl)furo[2,3-d]pyrimidin-6-yl]-1H-pyrimidine-2,4-dione]
pIC50 [1]: 6.98
pIC50 [2]: 7.02
pIC50 (CD73 in whole blood): 5.70

O=c1[nH]cc(-c2cc3c(N4CC(F)(F)C5(CC5)C4)ncnc3o2)c(=O)[nH]1 [Example 19.3, 5-[4-(7,7-Difluoro-5-azaspiro[2.4]heptan-5-yl)furo[2,3-d]pyrimidin-6-yl]-1H-pyrimidine-2,4-dione]
pIC50 [1]: 7.55
pIC50 [2]: 6.86
pIC50 (CD73 in whole blood): 6.19
